From ChEMBL document CHEMBL2203091, “Synthesis of novel МТ3 receptor ligands via an unusual Knoevenagel condensation” (Bioorg Med Chem Lett, 2012)

What was measured:
[1] = molecular target: T1, Ribosyldihydronicotinamide dehydrogenase [quinone] (Homo sapiens) (UniProt P16083); assay: Inhibition of […] reductase 2 using MTT and NMeH as substrates
T1 sequence (whole entry): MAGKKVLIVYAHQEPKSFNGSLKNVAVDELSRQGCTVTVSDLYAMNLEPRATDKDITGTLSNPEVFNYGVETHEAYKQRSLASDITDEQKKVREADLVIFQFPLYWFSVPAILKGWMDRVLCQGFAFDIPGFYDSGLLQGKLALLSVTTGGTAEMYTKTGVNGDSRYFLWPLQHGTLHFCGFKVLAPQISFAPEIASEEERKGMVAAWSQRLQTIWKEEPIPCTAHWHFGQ

[2] = molecular target: T2, Ribosyldihydronicotinamide dehydrogenase [quinone] (Homo sapiens, UniProt P16083); assay: Binding affinity to […] reductase 2 using MTT and NMeH as substrates
T2 sequence (P16083 whole entry): T1 sequence (whole entry)

[3] = molecular target: T1, Ribosyldihydronicotinamide dehydrogenase [quinone] (Homo sapiens); conditions: 0.5 to 50 uM
Description: Inhibition of human recombinant quinine reductase 2 expressed in Escherichia coli BL21 (DE3) using menadione and NMeH as substrates at 0.5 to 50 uM

Row | Compound | Imax [1] | IC50 [2] | Imax [3]
1 | CC(=O)NCCC1C(=O)Nc2ccc(NC(C)=O)cc21 (stereo not given) | 81.7% | 20.7 µM | –
2 | COc1ccc2[nH]cc(CCNC(C)=O)c2c1 | 85.2% | – | 75%
3 | CC(=O)Nc1ccc2c(c1)C(CC#N)C(=O)N2 (stereo not given) | 100% | 14.1 µM | –

Next, values leading:

Row | Imax [1] | IC50 [2] | Imax [3] | Compound
4 | 99.2% | 7 µM | – | CC(=O)Nc1ccc2c(c1)C(CC#N)C(=O)N2C (stereo not given)
5 | 36.3% | 0.2 µM | – | CC(=O)NCCC1(O)C(=O)Nc2ccc(NC(C)=O)cc21 (stereo not given)
